Source: ChEMBL document CHEMBL4425149, “Lead optimization of a pyrazolo[1,5-a]pyrimidin-7(4H)-one scaffold to identify potent, selective and orally bioavailable KDM5 inhibitors suitable for in vivo biological studies” (Bioorg Med Chem Lett, 2016)
Activity calls are given as the source filed them. The calls are words filed in the database; no cut-off is given here.

Key:
[1] = Inhibition of KDM5 in human PC9 cells assessed as demethylation of H3K4Me3; type: cell-based; conditions: PC-9
[2] = target: Lysine-specific demethylase 5A (Homo sapiens, UniProt P29375); assay: Inhibition of KDM5A (unknown origin)
Chain of Lysine-specific demethylase 5A (P29375 whole entry): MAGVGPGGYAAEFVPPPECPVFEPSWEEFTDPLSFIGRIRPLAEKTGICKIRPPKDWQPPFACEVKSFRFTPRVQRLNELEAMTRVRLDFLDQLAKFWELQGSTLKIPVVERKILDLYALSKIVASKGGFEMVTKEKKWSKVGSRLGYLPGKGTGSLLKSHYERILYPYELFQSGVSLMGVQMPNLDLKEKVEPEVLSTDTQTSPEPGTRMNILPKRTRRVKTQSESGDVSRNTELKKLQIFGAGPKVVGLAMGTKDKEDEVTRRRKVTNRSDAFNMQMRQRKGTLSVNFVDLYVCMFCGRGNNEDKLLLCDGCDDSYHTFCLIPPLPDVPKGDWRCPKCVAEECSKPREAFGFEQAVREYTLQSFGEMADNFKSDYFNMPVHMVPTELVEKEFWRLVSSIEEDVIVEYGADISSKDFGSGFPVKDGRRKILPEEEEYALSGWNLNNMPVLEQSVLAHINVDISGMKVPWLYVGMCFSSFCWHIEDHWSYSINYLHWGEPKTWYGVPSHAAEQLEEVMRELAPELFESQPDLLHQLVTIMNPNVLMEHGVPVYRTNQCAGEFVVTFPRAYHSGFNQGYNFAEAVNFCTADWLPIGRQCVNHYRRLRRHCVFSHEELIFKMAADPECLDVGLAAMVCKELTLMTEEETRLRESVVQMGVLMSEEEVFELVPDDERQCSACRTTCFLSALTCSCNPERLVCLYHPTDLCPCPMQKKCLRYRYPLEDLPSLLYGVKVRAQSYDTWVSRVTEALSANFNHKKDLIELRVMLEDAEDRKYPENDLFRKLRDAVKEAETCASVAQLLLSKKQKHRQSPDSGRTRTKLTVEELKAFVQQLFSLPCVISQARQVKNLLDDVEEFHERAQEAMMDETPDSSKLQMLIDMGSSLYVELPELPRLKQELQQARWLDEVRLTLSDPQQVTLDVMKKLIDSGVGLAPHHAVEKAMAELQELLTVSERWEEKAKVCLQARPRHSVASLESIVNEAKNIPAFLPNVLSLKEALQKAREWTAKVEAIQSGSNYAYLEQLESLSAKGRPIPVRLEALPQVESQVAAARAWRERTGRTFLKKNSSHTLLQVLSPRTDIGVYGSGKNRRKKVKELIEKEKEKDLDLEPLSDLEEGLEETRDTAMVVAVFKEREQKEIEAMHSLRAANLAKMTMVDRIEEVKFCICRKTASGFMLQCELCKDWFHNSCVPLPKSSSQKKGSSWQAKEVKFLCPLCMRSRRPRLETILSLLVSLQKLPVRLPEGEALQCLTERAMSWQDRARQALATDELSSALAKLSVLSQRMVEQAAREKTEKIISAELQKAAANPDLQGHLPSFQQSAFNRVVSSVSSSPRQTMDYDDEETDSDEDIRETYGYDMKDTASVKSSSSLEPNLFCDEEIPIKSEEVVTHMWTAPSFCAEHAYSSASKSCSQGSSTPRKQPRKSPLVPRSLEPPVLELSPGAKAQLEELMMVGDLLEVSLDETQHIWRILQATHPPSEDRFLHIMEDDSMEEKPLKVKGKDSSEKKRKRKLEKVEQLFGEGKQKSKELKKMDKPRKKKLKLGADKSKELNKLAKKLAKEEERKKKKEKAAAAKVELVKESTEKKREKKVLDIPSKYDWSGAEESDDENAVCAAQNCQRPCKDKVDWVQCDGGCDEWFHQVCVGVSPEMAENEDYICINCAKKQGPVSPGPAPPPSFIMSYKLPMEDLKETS

[3] = Protein binding in human plasma; type: ADME, cell-free; conditions: read-out: PPB (converted)
[4] = Octanol-aqueous buffer distribution coefficient, log D of the compound at pH 7.4; type: physicochemical
[5] = Dissociation constant, pKa of the compound at pH 7.4; type: physicochemical
[6] = Dissociation constant, pKa of the compound; type: physicochemical
[7] = Volume of distribution in CD-1 mouse at 1 mg/kg, iv or 5 mg/kg, po; type: ADME, organism-based; conditions: in vivo
[8] = Clearance in CD-1 mouse plasma at 1 mg/kg, iv or 5 mg/kg, po; type: ADME, organism-based
[9] = Half life in CD-1 mouse at 1 mg/kg, iv or 5 mg/kg, po; type: ADME, organism-based; conditions: in vivo
[10] = Oral bioavailability in CD-1 mouse at 5 mg/kg; type: ADME, organism-based; conditions: in vivo
[11] = target: Lysine-specific demethylase 5B (Homo sapiens, UniProt Q9UGL1); assay: Inhibition of KDM5B (unknown origin)
Chain of Lysine-specific demethylase 5B (Q9UGL1 whole entry): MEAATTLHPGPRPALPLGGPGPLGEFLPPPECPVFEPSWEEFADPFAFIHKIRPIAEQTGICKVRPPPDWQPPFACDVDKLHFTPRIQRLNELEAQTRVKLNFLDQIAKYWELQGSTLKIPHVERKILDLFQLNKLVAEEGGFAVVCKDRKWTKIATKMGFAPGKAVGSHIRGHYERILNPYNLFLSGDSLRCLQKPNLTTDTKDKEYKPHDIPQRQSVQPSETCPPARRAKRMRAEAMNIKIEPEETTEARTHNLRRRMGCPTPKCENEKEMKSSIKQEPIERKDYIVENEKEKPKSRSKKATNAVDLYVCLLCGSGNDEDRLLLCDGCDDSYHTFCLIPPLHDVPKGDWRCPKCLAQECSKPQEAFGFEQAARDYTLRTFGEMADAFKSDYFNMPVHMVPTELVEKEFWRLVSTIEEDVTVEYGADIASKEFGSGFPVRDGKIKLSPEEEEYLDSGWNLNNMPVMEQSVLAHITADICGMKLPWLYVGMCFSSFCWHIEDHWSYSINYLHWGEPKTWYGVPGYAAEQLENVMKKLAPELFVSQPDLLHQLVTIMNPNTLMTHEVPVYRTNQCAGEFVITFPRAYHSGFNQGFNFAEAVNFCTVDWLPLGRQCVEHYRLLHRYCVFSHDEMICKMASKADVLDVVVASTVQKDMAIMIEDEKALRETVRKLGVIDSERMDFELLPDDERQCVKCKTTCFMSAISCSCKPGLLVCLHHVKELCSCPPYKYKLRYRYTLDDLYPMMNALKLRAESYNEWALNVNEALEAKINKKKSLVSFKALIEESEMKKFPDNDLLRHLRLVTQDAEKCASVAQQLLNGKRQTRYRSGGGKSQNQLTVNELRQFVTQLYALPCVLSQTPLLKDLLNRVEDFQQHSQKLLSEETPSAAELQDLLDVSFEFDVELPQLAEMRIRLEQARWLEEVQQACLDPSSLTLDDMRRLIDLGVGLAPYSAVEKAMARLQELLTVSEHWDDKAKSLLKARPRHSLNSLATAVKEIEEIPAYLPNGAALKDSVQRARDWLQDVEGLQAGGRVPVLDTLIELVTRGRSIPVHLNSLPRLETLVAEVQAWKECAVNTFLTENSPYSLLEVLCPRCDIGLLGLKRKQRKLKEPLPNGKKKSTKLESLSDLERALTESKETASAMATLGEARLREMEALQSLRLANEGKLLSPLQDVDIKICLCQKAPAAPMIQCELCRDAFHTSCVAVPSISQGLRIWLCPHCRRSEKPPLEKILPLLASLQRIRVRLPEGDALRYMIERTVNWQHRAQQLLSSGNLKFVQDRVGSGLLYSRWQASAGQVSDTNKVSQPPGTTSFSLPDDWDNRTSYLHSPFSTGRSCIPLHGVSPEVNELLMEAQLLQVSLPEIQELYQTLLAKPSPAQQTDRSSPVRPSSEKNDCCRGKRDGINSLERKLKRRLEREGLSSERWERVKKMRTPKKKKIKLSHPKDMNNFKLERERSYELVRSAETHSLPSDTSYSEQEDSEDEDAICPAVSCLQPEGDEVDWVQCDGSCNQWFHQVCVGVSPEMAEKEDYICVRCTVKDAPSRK

[12] = target: Lysine-specific demethylase 6A (Homo sapiens) (UniProt O15550); assay: Inhibition of KDM6A (unknown origin)
Chain of Lysine-specific demethylase 6A (Homo sapiens) (O15550 whole entry): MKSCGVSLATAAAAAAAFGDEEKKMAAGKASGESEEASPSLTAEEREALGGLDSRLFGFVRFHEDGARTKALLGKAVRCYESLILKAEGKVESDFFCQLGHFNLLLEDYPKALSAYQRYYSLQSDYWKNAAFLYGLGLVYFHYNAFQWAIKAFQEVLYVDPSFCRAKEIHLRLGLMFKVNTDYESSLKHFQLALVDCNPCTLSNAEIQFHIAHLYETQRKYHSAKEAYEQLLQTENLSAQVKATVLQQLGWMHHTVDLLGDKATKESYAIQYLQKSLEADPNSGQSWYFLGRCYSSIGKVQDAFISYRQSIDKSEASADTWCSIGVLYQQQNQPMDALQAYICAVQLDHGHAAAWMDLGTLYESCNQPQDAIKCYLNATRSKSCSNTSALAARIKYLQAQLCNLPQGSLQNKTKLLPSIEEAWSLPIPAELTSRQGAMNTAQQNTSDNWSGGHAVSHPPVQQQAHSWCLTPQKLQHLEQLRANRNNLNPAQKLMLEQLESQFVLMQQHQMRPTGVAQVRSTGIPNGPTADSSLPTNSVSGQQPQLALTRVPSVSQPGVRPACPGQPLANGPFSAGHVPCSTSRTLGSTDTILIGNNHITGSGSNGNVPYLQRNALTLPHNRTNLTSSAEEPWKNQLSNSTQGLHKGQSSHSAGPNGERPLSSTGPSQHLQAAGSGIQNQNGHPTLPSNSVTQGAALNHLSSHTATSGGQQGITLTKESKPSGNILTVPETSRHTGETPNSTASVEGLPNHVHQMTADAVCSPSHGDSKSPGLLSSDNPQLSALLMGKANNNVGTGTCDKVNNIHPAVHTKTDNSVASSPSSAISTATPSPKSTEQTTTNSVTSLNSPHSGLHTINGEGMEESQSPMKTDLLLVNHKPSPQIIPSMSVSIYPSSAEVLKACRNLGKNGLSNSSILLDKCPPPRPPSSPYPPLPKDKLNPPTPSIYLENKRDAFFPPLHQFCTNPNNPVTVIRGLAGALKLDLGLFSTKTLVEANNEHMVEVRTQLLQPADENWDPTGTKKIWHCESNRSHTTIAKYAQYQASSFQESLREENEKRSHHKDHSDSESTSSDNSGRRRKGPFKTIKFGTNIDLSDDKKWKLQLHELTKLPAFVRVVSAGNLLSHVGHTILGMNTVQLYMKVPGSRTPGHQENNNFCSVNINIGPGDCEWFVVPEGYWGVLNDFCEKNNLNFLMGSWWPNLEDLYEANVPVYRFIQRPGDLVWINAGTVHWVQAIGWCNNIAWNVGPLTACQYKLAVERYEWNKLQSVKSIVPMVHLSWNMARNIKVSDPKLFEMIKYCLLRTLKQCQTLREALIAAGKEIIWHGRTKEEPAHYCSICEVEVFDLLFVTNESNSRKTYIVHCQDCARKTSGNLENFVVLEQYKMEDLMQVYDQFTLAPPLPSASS

[13] = target: Lysine-specific histone demethylase 1A (Homo sapiens) (UniProt O60341); assay: Inhibition of KDM1A (unknown origin)
[14] = Cmax in mouse at 50 mg/kg, po bid; type: ADME, organism-based; set-up: dose 50 mg/kg, route oral; conditions: in vivo
[15] = target: Lysine-specific demethylase 5C (Homo sapiens, UniProt P41229); assay: Inhibition of KDM5C (unknown origin)
[16] = fCmax in mouse at 50 mg/kg, po bid; type: ADME, organism-based; conditions: in vivo
[17] = target: Lysine-specific demethylase 3B (Homo sapiens) (UniProt Q7LBC6); assay: Inhibition of KDM3B (unknown origin)
[18] = target: Histone lysine demethylase PHF8 (Homo sapiens) (UniProt Q9UPP1); assay: Inhibition of KDM7B (unknown origin)
[19] = target: T1, Lysine-specific demethylase 2B (Homo sapiens) (UniProt Q8NHM5); assay: Inhibition of KDM2B (unknown origin)
T1 sequence (whole entry): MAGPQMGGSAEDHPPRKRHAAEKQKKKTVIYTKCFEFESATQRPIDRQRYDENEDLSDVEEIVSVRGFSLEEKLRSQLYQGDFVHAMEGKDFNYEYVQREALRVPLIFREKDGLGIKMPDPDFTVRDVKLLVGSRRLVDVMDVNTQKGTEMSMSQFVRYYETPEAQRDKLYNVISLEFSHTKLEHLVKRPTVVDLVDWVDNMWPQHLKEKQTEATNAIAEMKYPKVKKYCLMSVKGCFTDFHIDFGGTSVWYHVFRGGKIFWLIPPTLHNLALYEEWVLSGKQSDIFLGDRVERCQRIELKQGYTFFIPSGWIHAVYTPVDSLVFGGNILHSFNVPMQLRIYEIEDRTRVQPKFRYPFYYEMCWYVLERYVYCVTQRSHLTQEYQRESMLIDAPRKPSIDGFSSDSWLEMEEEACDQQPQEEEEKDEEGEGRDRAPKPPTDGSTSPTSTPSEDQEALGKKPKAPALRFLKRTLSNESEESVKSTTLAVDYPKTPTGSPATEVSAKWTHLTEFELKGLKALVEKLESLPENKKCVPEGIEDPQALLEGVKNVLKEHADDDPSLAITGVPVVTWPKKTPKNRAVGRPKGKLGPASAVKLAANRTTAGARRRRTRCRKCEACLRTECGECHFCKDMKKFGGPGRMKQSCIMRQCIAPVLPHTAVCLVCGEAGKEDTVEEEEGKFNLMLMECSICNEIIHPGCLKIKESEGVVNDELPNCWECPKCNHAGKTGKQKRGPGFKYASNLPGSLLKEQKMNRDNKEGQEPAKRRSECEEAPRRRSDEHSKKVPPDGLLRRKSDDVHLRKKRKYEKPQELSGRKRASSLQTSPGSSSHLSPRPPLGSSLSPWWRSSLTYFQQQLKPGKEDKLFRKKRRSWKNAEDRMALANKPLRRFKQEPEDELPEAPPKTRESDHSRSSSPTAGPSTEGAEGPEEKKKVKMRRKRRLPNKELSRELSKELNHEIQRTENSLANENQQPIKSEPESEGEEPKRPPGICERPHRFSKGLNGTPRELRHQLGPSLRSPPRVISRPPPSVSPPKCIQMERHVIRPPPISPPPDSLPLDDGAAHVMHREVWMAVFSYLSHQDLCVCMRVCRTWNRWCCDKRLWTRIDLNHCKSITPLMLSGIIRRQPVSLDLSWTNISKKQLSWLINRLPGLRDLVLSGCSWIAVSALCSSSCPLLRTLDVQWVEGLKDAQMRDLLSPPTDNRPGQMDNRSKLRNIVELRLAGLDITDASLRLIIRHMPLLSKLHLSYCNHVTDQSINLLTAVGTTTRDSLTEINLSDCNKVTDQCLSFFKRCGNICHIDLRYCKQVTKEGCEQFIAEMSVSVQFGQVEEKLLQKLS

[20] = Protein binding in mouse plasma; type: ADME, cell-free; conditions: read-out: PPB (converted)

SMILES	EC50 [1]	IC50 [2]	also measured
CC(C)c1c(-c2cn[nH]c2)[nH]c2c(C#N)cnn2c1=O	1200 nM	5.3 nM	fraction unbound [3]: 0.026
CC(C)c1c(-c2cnn(CCC#N)c2)[nH]c2c(C#N)cnn2c1=O	2900 nM	10.1 nM	logD [4]: -0.45; fraction unbound [3]: 0.066
CC(C)c1c(-c2ccc(Cl)cc2)[nH]c2c(C#N)cnn2c1=O		20.4 nM	
Cc1[nH]c2c(C#N)cnn2c(=O)c1C(C)C	13800 nM	9.3 nM	
CC(C)c1c(N2CCCCC2)[nH]c2c(C#N)cnn2c1=O		63.2 nM	
C#CC(C)c1c(-c2ccccc2)[nH]c2c(C#N)cnn2c1=O (racemic)	11300 nM	12.8 nM	
CC(C)c1c(-c2ccccc2)[nH]c2c(C#N)cnn2c1=O			pKa [5]: 6
CC(C)c1c(CCc2ccccc2)[nH]c2c(C#N)cnn2c1=O	> 30000 nM	13.1 nM	
COc1cc(-c2[nH]c3c(C#N)cnn3c(=O)c2C(C)C)ccn1		31.6 nM	
CC(C)c1c(-c2cccnc2)[nH]c2c(C#N)cnn2c1=O	9300 nM	12.3 nM	
CC(C)c1c(-c2cnn(C3COC3)c2)[nH]c2c(C#N)cnn2c1=O	8300 nM	15.9 nM	logD [4]: -0.1; fraction unbound [3]: 0.04
CC(C)c1c(Cc2ccccc2)[nH]c2c(C#N)cnn2c1=O	> 30000 nM	11.9 nM	
C#CCc1c(-c2ccccc2)[nH]c2c(C#N)cnn2c1=O		21.1 nM	
CCC(C)c1c(-c2ccccc2)[nH]c2c(C#N)cnn2c1=O (racemic)	28400 nM		
C=CC(C)c1c(-c2ccccc2)[nH]c2c(C#N)cnn2c1=O (racemic)	16400 nM	15.5 nM	
CC(C)c1c(-c2cccc(OC(F)(F)F)c2)[nH]c2c(C#N)cnn2c1=O		28.9 nM	
CC(C)c1c(-c2ccco2)[nH]c2c(C#N)cnn2c1=O	6700 nM	6.2 nM	
CCn1cc(-c2[nH]c3c(C#N)cnn3c(=O)c2C(C)C)cn1	2300 nM		logD [4]: 0.66; fraction unbound [3]: 0.005
C=Cc1c(-c2ccccc2)[nH]c2c(C#N)cnn2c1=O		20.1 nM	
CC(C)c1c[nH]c2c(C#N)cnn2c1=O		28.3 nM	
CC(C)c1c(Nc2ccccc2)[nH]c2c(C#N)cnn2c1=O	> 30000 nM	27.5 nM	pKa [6]: 8.2

SMILES	EC50 [1]	IC50 [2]	also measured
CC(C)c1c(-c2cncnc2)[nH]c2c(C#N)cnn2c1=O	> 30000 nM		
CC(C)c1c(-c2cnn(-c3ccccc3)c2)[nH]c2c(C#N)cnn2c1=O	1700 nM	5.6 nM	Vd [7]: 0.63 L/kg; logD [4]: 1.8; clearance [8]: 7.7 mL/min/kg; fraction unbound [3]: 0.001; half-life [9]: 66 min; bioavailability [10]: 21.3%
CC(CO)c1c(-c2ccccc2)[nH]c2c(C#N)cnn2c1=O (configuration not stated)		29 nM	
CC(C)c1c(-c2cnn(C3CC3)c2)[nH]c2c(C#N)cnn2c1=O	1300 nM	7.9 nM	logD [4]: 0.74; fraction unbound [3]: 0.008
CC(C)c1c(-c2cnn(C3CCC3)c2)[nH]c2c(C#N)cnn2c1=O	870 nM	11.2 nM	logD [4]: 1.3; fraction unbound [3]: 0.004
CCc1[nH]c2c(C#N)cnn2c(=O)c1C(C)C	12100 nM	9.5 nM	
CC(C)c1c(-c2cnn(C(C)C)c2)[nH]c2c(C#N)cnn2c1=O	440 nM	13.8 nM	Vd [7]: 0.54 L/kg; logD [4]: 0.93; clearance [8]: 15.7 mL/min/kg; fraction unbound [3]: 0.013; half-life [9]: 36.6 min; bioavailability [10]: 69.5%
CC(C)c1c(-c2ccc(OC(F)(F)F)cc2)[nH]c2c(C#N)cnn2c1=O		35.9 nM	
COCCn1cc(-c2[nH]c3c(C#N)cnn3c(=O)c2C(C)C)cn1	1800 nM	10.4 nM	logD [4]: 0.4; fraction unbound [3]: 0.033
CC(C)c1c(/C=C/c2ccccc2)[nH]c2c(C#N)cnn2c1=O		17.5 nM	
C=C(C)c1c(-c2ccccc2)[nH]c2c(C#N)cnn2c1=O		24.7 nM	
CC(C)c1c(-c2cnn(C(C)(C)C)c2)[nH]c2c(C#N)cnn2c1=O	340 nM	15.1 nM	IC50 [11]: 4.7 nM; inhibition [12]: inactive; inhibition [13]: inactive; Vd [7]: 0.44 L/kg; logD [4]: 1.4; Cmax [14]: 206 µM; IC50 [15]: 65.5 nM; fCmax [16]: 5.2 µM; clearance [8]: 5 mL/min/kg; inhibition [17]: inactive; inhibition [18]: inactive; inhibition [19]: inactive; fraction unbound [3]: 0.012; half-life [9]: 78 min; fraction unbound [20]: 0.025; bioavailability [10]: 100%
COC(=O)c1c(-c2ccccc2)[nH]c2c(C#N)cnn2c1=O		319 nM	
CC(C)c1c(-c2cnn(C)c2)[nH]c2c(C#N)cnn2c1=O	2000 nM	13.3 nM	Vd [7]: 0.6 L/kg; logD [4]: 0.4; clearance [8]: 59.9 mL/min/kg; fraction unbound [3]: 0.011; half-life [9]: 10.2 min; bioavailability [10]: 61.3%
N#Cc1cnn2c(=O)c(Br)c(-c3ccccc3)[nH]c12		29.3 nM	
CC(C)c1c(-c2ccc(C(F)(F)F)cc2)[nH]c2c(C#N)cnn2c1=O		18.2 nM	
CC(C)c1c(-c2cccc(C(F)(F)F)c2)[nH]c2c(C#N)cnn2c1=O	7500 nM		
Cc1ccc(-c2[nH]c3c(C#N)cnn3c(=O)c2C(C)C)cc1		20.3 nM	
N#Cc1cnn2c(=O)c(C3CCC3)c(-c3ccccc3)[nH]c12	> 30000 nM	9.2 nM	
CC(C)c1c(Oc2ccccc2)[nH]c2c(C#N)cnn2c1=O	> 30000 nM	18 nM	pKa [6]: 9.8
CC(C)c1c(N(C)C)[nH]c2c(C#N)cnn2c1=O		76.6 nM	
